In this test the target is T1, phospholipase A2 (Rattus norvegicus, UniProt P14423).
T1 construct: The phospholipase A2 is isolated from the peritoneal cavity of a rat; from tissue; host or cells: peritoneal cavity of a rat
T1 sequence (P14423 22-146): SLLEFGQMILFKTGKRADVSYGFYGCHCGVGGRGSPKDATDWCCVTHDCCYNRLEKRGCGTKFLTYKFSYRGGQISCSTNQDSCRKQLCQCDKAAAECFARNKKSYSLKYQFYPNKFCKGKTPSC
In words: inhibition of phospholipase A2 (PLA2): release of 14C-labeled fatty acid from phosphatidylethanolamine. As to conditions: PLA2 isolated from peritoneal cavity of a rat; 0.1M Tris-HCl, pH=9, Ca++; 20 min preincubation, then 20 min with substrate, 37° C.; read-out: 50% inhibitory concentration (IC50) (converted). The test is classed as biochemical. Here is the method: The inhibition of phospholipase A2, which is involved in the production of allergy and inflammation mediators, especially in the inflammatory reaction of skin allergies, is measured according to the protocol described by H. W. Chang, I. Kudo, M. Tomita and K. Inoue in J. Biochem. (Tokyo) 102(1): 147-154 (1987).
The phospholipase A2 is isolated from the peritoneal cavity of a rat. PLA2 hydrolyzes the ester linkage in the 2-position of the glycerol of a phosphatidylethanolamine, this position being occupied by a fatty acid residue labeled with carbon 14. The radioactive fatty acid released will be extracted and then quantitatively analyzed by liquid scintillation. In the presence of the PLA2 inhibitor, this hydrolysis will be reduced and less released fatty acid will therefore be determined.
In practice, the PLA2 and the test product are placed in a 0.1M Tris-HCl buffer, pH=9, containing 4 mmol of Ca^++ and the mixture is incubated for 20 min at 37° C., with agitation. After this contact time, the labeled phosphatidylethanolamine is added and incubation is continued for 20 min at 37° C., with agitation, to allow the hydrolysis of this substrate. n-Heptane is then used to extract the labeled fatty acid released during the hydrolysis, the latter then being quantitatively analyzed by liquid scintillation. […]

Here are results for one compound from US5603949A, “Use of a tocopherol phosphate or one of its derivatives, for the preparation of cosmetic or pharmaceutical compositions and compositions so obtained” (LVMH Recherche, priority 1991, dated 1997).

Counter-ions that a name gives are not always drawn.

Turning to `Cc1cc(OP(=O)(O)O)cc2c1OC(C)(CCCC(C)CCCC(C)CCCC(C)C)CC2` (stereo not shown) [disodium salt of delta-tocopherol phosphate], the IC50 was 20.7 µM.
